According to patent US20090004185A1, “AMINO-SUBSTITUTED QUINAZOLINE DERIVATIVES AS INHIBITORS OF BETA-CATENIN/TCF-4 PATHWAY AND CANCER TREATMENT AGENTS” (WYETH, priority 2007, published 2009):

Legend:
[1] = system: β-catenin/Tcf-4; experiment: cells; type: cell-based; conditions: 24 hours of incubation with compound, ratio Firefly/Renilla luciferase
How it was run: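 SW480-derived lines with integrated reporters (Tcf-4-driven firefly luciferase; SV40 firefly as specificity control; SV40 Renilla for cell number/toxicity), treated 24 hours with titrated compounds, final 0.316% DMSO. Dual-luciferase read-out; firefly/Renilla ratio as % of control, duplicate plates, IC50 (nM) from curve fit.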

[2] = system: SV40-Luc; experiment: SV40-Luc control luciferase reporter assay, SV 5A8 cell line (SV40-Luc and SV40-R-Luc), control for non-specific inhibitors; type: cell-based, human; conditions: SV 5A8 cells derived from SW480, 24 hours of incubation with compound, ratio Firefly/Renilla luciferase
How it was run: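 Compound exposure lasted 24 h, starting 20-24 h after seeding 1×10^4 cells/well, with titrated doses and 0.316% final DMSO. Readout was dual firefly/Renilla luminescence; Renilla under an SV40 promoter corrects for cell number and toxicity, and SV 5A8 (SV40 firefly) flags non-specific inhibitors versus Tcf-4-driven lines 33.13 and 22C11. IC50s came from the F/R ratio (% of control).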

[3] = Homo sapiens, SW480, 24 h, Tcf 33.13 cells derived from SW480
[4] = Homo sapiens, Tcf22C11, 24 h, Tcf 22C11 cells derived from SW480
[5] = Tcf 22C11 cells derived from SW480
[6] = Tcf 33.13 cells derived from SW480

| Molecule | IC50 [1, 3] [nM] | IC50 [1, 4] [nM] | IC50 ([2]; Homo sapiens, SV5A8, 24 h) [nM] | IC50 [1, 5] [nM] | IC50 [1, 6] [nM] | IC50 [2] [nM] |
| --- | --- | --- | --- | --- | --- | --- |
| CN(C)c1nc(NCc2ccc(NC(=O)c3ccc(F)cc3)cc2)c2ccccc2n1 [Example 113, N-[4-({[2-(dimethylamino)quinazolin-4-yl]amino}methyl)phenyl]-4-fluorobenzamide] | 766 | 1490 | > 3010 | – | – | – |
| C/C=C/c1ccc2c(N[C@@H](C)c3ccc(NC(=O)c4ccc(Cl)nc4)cc3)nc(N(C)C)nc2c1 [Example 107, 6-chloro-N-{4-[(1S)-1-({2-(dimethylamino)-7-[(1E)-prop-1-en-1-yl]quinazolin-4-yl}amino)ethyl]phenyl}nicotinamide] | 336 | 414 | > 4780 | – | – | – |
| C=Cc1cccc(-c2ccc3nc(N(C)C)nc(NCc4ccc(C(=O)Nc5ccc(F)cc5)cc4)c3c2)c1 [Example 172] | – | – | – | 397 | 308 | > 2830 |
| 4-chloro-2-fluoro-N-[4-({[6-methyl-2-(methylamino)quinazolin-4-yl]amino}methyl)phenyl]benzamide [Example 26] | – | – | – | 739 | 614 | > 2780 |
| O=C(Nc1ccc(CNc2nc(NC3CCCCC3)nc3ccccc23)cc1)c1ccc(F)cc1 [Example 125, N-[4-({[2-(cyclohexylamino)quinazolin-4-yl]amino}methyl)phenyl]-4-fluorobenzamide] | 364 | 1580 | > 1330 | – | – | – |
| O=C(Nc1ccc(CNc2nc(N3CCCCC3)nc3ccccc23)cc1)c1ccc(F)cc1 [Example 123, 4-fluoro-N-(4-{[(2-piperidin-1-ylquinazolin-4-yl)amino]methyl}phenyl)benzamide] | 2930 | 5850 | > 11000 | – | – | – |
| Cc1ccc2nc(N3CCN(c4ccccn4)CC3)nc(NCc3ccc(NC(=O)C4CCN(Cc5ccccc5)CC4)cc3)c2c1 [Example 79, 1-benzyl-N-[4-({[6-methyl-2-(4-pyridin-2-ylpiperazin-1-yl)quinazolin-4-yl]amino}methyl)phenyl]piperidine-4-carboxamide] | 1680 | 2350 | > 16000 | – | – | – |

Results, then the molecule that gave them:

| IC50 [1, 3] [nM] | IC50 [1, 4] [nM] | IC50 ([2]; Homo sapiens, SV5A8, 24 h) [nM] | IC50 [1, 5] [nM] | IC50 [1, 6] [nM] | IC50 [2] [nM] | Molecule |
| --- | --- | --- | --- | --- | --- | --- |
| 410 | 422 | > 1970 | – | – | – | Cc1ccc2c(NCc3ccc(NC(=O)C4CCN(Cc5ccc(Cl)c(F)c5)CC4)cc3)nc(N(C)C)nc2c1 [Example 263, 1-(4-chloro-3-fluorobenzyl)-N-[4-({[2-(dimethylamino)-7-methylquinazolin-4-yl]amino}methyl)phenyl]piperidine-4-carboxamide] |
| 1060 | 1240 | > 8200 | – | – | – | Cc1ccc2c(NCc3ccc(NC(=O)c4ccc(F)cc4)cc3)nc(N(C)Cc3ccco3)nc2c1 [Example 221, 4-fluoro-N-{4-[({2-[(2-furylmethyl)(methyl)amino]-7-methylquinazolin-4-yl}amino)methyl]phenyl}benzamide] |
| 491 | 804 | > 4560 | – | – | – | Cc1ccc2c(NCc3ccc(NC(=O)c4ccc(F)cc4)cc3)nc(N3CCN(c4ccccn4)CC3)nc2c1 [Example 200, 4-fluoro-N-[4-({[7-methyl-2-(4-pyridin-2-ylpiperazin-1-yl)quinazolin-4-yl]amino}methyl)phenyl]benzamide] |
| 3950 | > 2340 | > 9360 | – | – | – | Cc1cccc2c(N[C@@H](C)c3ccc(NC(=O)c4ccc(Cl)nc4)cc3)nc(N(C)C)nc12 [Example 273, (S)-6-chloro-N-(4-(1-(2-(dimethylamino)-8-methylquinazolin-4-ylamino)ethyl)phenyl)nicotinamide] |
| 2680 | 3100 | > 12900 | – | – | – | Cc1ccc2c(NCc3ccc(NC(=O)c4ccc(F)cc4)cc3)nc(N3CCN(c4ccccc4)CC3)nc2c1 [Example 212, 4-fluoro-N-[4-({[7-methyl-2-(4-phenylpiperazin-1-yl)quinazolin-4-yl]amino}methyl)phenyl]benzamide] |
